# From US20250255791A1, “POWDER COSMETIC CONTAINING ULTRAVIOLET WAVELENGTH-CONVERTING SUBSTANCE, AND METHOD FOR PRODUCING SAME” (Shiseido Company, Ltd., priority 2019, published 2025)
# Assays:
# Human dermal fibroblasts [1] = assay: Experiment 2: influence of C-phycocyanin concentration and UV intensity on cell activity (AlamarBlue); format: cell-based; conditions: UV 0-100 mJ/cm^2, FIG. 3
# Protocol: (§1) A cell sample was prepared as follows: 1. Human dermal fibroblasts and human skin keratinocytes purchased from Kurabo Industries Ltd. were used. A cell suspension (1 mL) stored in liquid nitrogen was thawed in a water bath (37° C.) to an extent that small ice pellets remained, and then diluted with 9 mL of warm medium. 2. The diluted suspension was mixed gently and then transferred to a T75 flask and incubated overnight at 37° C. 3. The next day, the medium was replaced with 10 mL of fresh medium. 4. The medium was replaced periodically (once every 2 days for fibroblasts and once every 2 to 3 days for keratinocytes) and cell proliferation was continued. Meanwhile, the cells were observed using a microscope, and it was confirmed that the cells grew in the correct form. 5. After the cells reached about 80% confluence, the cells were passaged. The cells were passaged by washing the cells once with 10 mL of warm PBS, adding 5 mL of warm trypsin to a T75 flask, covering the bottom of the flask with a trypsin solution, followed by aspirating at room temperature for 1 minute. 6. The flask was allowed to stand in an oven at 37° C. for (maximum) 2 minutes for fibroblasts and (maximum) 7 minutes for keratinocytes. The cells were observed using a microscope and confirmed to be small and oval. 7. Thereafter, the side of the T75 flask was lightly tapped to release the cells. […]
# Human dermal fibroblasts [2] = assay: Experiment 3: restoration of cell activity decreased by prior UV irradiation (AlamarBlue); format: cell-based; conditions: pre-irradiation 400 mJ/cm^2 without substance, then UV 0-200 mJ/cm^2 through 0.4% or 2% solution; FIG. 5
# Protocol: as §1
substance,measurement,setting,value
C-phycocyanin,cell activity (relative fluorescence intensity) on UV irradiation,Human dermal fibroblasts [1]; 0.4% C-phycocyanin solution,the decrease in cell activity was suppressed
same,cell activity (relative fluorescence intensity) on UV irradiation versus no UV irradiation,Human dermal fibroblasts [1]; 2% C-phycocyanin solution,the cell activity was even increased
same,cell activity of cells whose activity was once decreased by UV irradiation,Human dermal fibroblasts [2],cell activity was recovered
